How the values were obtained:
[1] = Safe dose in humans (scientific literature); assay type: in vivo, human; settings: body surface conversion factor; 54 mg/kg in humans
Protocol: Based on scientific literature, it is understood that GGTi-2418 can be administered safely to humans in doses up to 2,060 mg/m^2 (54 mg/kg body weight) on days 1-5 of each 21-day cycle. By using a body surface conversion factor, 54 mg/kg in humans compares to 660 mg/kg in mice. In humans, GGTi can generally be administered in an effective amount with a dose escalation from about 200 mg/m^2 to 2060 mg/m^2 per day on days 1-5 of each 21-day cycle. In rats, the maximum tolerated dose for GGTi is 200 mg/kg for a single dosing or 150 mg/kg/day for 7 consecutive days. In addition to intraperitoneal administration, oral gavage, intravenous infusion, and subcutaneous administration are other acceptable modes of administration. While GGTi-298 and GGTi-2133 are the preferred GGTis in the method of the present invention, use of other GGTis are expected to show the same effects although the magnitude of the effects may not be as great.

[2] = days 1-5 of each 21-day cycle; cited from earlier work
[3] = tested on: cecal content microbiome of male C57BL/6J mice; assay: Microbiome analysis of cecal content on day 3.5 after 12 Gy PBI; assay type: in vivo, mouse; settings: 2.5 mg/kg at 24 and 72 h
Protocol: FIGS. 9A-9C are pie charts showing the distribution of different bacterial strains in the cecal content of sham-irradiated vehicle treated mice (FIGS. 9A), 12 Gy PBI plus vehicle treated mice (FIG. 9B), and mice treated with […] and 2.5 mg/kg GGTi-2133 in two administrations (FIG. 9C).
GGTi-2133 alters the percent of 3 bacterial species in the cecal content of mice on day 3.5 after PBI: Male C57BL/6J mice were exposed to 12 Gy PBI and administered GGTi-2133 (2.5 mg/kg) at 24 hours and 72 hours after irradiation. A sample of cecal content was aseptically collected 3.5 days after PBI. […] There were 8 mice in each group. […] GGTi-2133 increased the percentage of Akkermansia muciniphila in irradiated mice. The percentage of Turicibacter and Clostridium species were increased in PBI plus vehicle treated mice as compared to sham-irradiated vehicle-treated mice. The percentage of Turicibacter and Clostridium species were reduced in PBI plus GGTi-2133 treated mice compared to PBI plus vehicle treated mice.

[4] = tested on: BxPC-3 human pancreatic adenocarcinoma cell line; assay: MTT assay of cell proliferation and metabolic rate; assay type: cell-based; settings: 3 concentrations, once a day for 4 days, time-dependent and dose-dependent
Protocol: (§1) Human pancreatic cancer cell lines (PANC-1, BxPC-3, PSN-1) and a human prostate cancer cell line (LNCaP) were cultured in vitro at 37° C. and 5% CO2 and incubated with GGTi-2133 at 3 different concentrations. Cell proliferation and metabolic rate were measured with an MTT assay once a day for a total of 4 days. GGTi-2133 reduced the cell proliferation rate in all 4 cell lines in a dose-dependent manner. […] Finally, GGTi-2133 reduced the metabolic activity in LNCaP cells exposed to ionizing radiation.
(§2) FIG. 10F is a bar graph showing cell proliferation and metabolic rate in the LNCaP cell line were reduced to a greater extent after combined treatment with 2 Gy radiation plus GGTi-2133 treatment, in comparison to singular treatment with either 2 Gy radiation or GGTi-2133. Data are represented as mean+/−SD (n=4).

[5] = tested on: PSN-1 human pancreatic cancer cell line; assay: MTT assay of cell proliferation and metabolic rate; assay type: cell-based; settings: 3 concentrations, once a day for 4 days, time-dependent and dose-dependent
Protocol: as §1, §2

[6] = tested on: PANC-1 human pancreatic epithelioid carcinoma cell line; assay: MTT assay of cell proliferation and metabolic rate; assay type: cell-based; settings: 3 concentrations, once a day for 4 days, time-dependent and dose-dependent
Protocol: as §1, §2

[7] = tested on: small intestine of male C57BL/6J mice after 12 Gy PBI; assay: 12 Gy γ-ray partial body irradiation (PBI) mouse model, intestinal injury and body weight at 2 weeks; assay type: in vivo
Text: In addition, GGTi-298 (commercially available, MedChemExpress, Monmouth Junction, NJ) mitigated adverse effects of 12 Gy γ-ray PBI on villus height, crypt depth and crypt width. […] This bacterium is inversely associated with obesity, diabetes, inflammation and metabolic disorders. Lastly, PBI-induced increases in the percentage of Turicibacter and Clostridium species were mitigated by GGTi-2133. Several Clostridium species are known to be pathogenic, while an increase in Turicibacter depletes CD8+ lymphocytes in the gut, which can adversely affect gut immune function.
Data are represented as mean+/−standard deviation (SD; n=5 to 8 mice per group). “PBI” refers to partial body irradiation, and “Sham” refers to no PBI. The notations “a & b” refer to statistically significant difference from sham-irradiation and PBI, respectively. […] Both sham-irradiated mice and the PBI group received intraperitoneal administration of vehicle. […]
FIGS. 5A-5D are photomicrographs showing olfactomedin 4 (OLFM4) staining in the crypts of sham irradiated vehicle treated mice (FIGS. 5A), 12 Gy PBI plus vehicle treated mice (FIGS. […] 5D). Colors represent staining intensities: yellow (dark), red (medium), and green (weak). FIG. 5E is a bar graph showing the average staining intensity for dark, medium, and weak immunoreactivity obtained by analyzing 10 randomly selected crypts under 100× magnification from each mouse. Data are presented as mean+/−SD (n=5 to 8). The notation “a & b” refer to statistically significant difference from sham and PBI, respectively.
FIG. 6A is an H&E stained small intestinal section (20× magnification) to indicate how the villus height, crypt depth, and crypt width were measured with computerized analysis. […] Data are represented as mean+/−SD. The notation “a & b” refer to statistically significant difference from sham and PBI, respectively. Both sham-irradiated mice and the PBI group received intraperitoneal administration of vehicle.
Villus height and crypt depth were measured in 30 randomly selected villi and crypts (20× magnification), MSA was measured in 5 randomly selected areas (20× magnification), and enterocyte length and the length of their nucleus were measured in 3 enterocytes/villus in 10 villi (100× magnification) for each mouse.
Neutrophils and lymphocytes were scored under 40× magnification. Macrophages were scored in 30 villi under 100× magnification.
GGTi-2133 treatment increases the number of intestinal proliferating cells after PBI: Two proliferation markers (PCNA and Ki-67) were used. […] Cells were scored under 40× magnification.
Cells were scored under 20× magnification.
GGTi-2133 increases the expression of intestinal stem cell marker olfactomedin 4 (OLFM4) after PBI: The inventors assayed OLFM4 protein with immunohistochemistry and computerized image analysis to classify the immunoreactive regions as “dark,” “medium,” or “weak” based on staining intensity.
GGTi-298 treatment attenuates intestinal structural damage following PBI: In order to ensure another formulation of GGTi provides similar mitigation against intestinal damage following PBI, the inventors used GGTi-298 (MedChemExpress). […] Villus height, and crypt depth and width were measured in 30 randomly selected villi and crypts (20× magnification) for each mouse.

[8] = tested on: small intestine crypts of male C57BL/6J mice after 12 Gy PBI; assay: Surviving crypt assay (PCNA) in small intestine on day 3.5 after 12 Gy PBI; assay type: in vivo, mouse; settings: 2.5 mg/kg i.p. at 24 h and 72 h, jejunum day 3.5, vs PBI plus vehicle
Protocol: FIGS. 8A-8C are photomicrographs of small intestine sections stained for Proliferating Cell Nuclear Antigen (PCNA) in sham-irradiated vehicle treated mice (FIGS. 8A), 12 Gy PBI plus vehicle treated mice (FIG. 8B), and mice treated with 12 Gy PBI and 2.5 mg/kg GGTi-2133 on (FIG. 8C). Cross-sections from three different mice are shown in each of FIG. 8A, FIG. 8B, and FIG. 8C. Each mouse received two intraperitoneal injections of either vehicle or 2.5 mg/kg GGTi: the first injection was administered 24 hours after PBI and the second one was administered 72 hours after irradiation. Intestinal tissue was harvested 84 hours after irradiation. FIG. 8D is a bar graph showing the average number of surviving crypts from two intestinal cross sections that were used for data analysis. Crypts were scored under 20× magnification. Data are represented as mean+/−SD (n=8 animals per group). The notation “a & b” refer to statistically significant difference from sham and PBI, respectively.
GGTi-2133 treatment enhances surviving crypt number on day 3.5 after PBI: Male C57BL/6J mice were exposed to 12 Gy PBI and administered GGTi-2133 (2.5 mg/kg) at 24 hours and 72 hours after irradiation. A specimen of the jejunum was collected on day 3.5 after irradiation. The presence of more than five PCNA positive cells grouped together in a crypt was recorded as a surviving crypt. […]

PANC-1 cell line = assay: Clonogenic assay (colony forming ability); assay type: cell-based, human; settings: dose-dependent
[9] = tested on: LNCaP androgen-sensitive human prostate adenocarcinoma cell line; assay: MTT assay of cell proliferation and metabolic rate, with or without 2 Gy radiation; assay type: cell-based
Protocol: as §1, §2

PSN-1 cell line = assay: Clonogenic assay (colony forming ability); assay type: cell-based, human; settings: dose-dependent
[10] = 12 Gy PBI, i.p. 1 or 2.5 mg/kg three times per week starting 24 h after PBI, 2 weeks, vs vehicle
[11] = 12 Gy PBI, i.p. 1 or 2.5 mg/kg, vs PBI plus vehicle
[12] = 12 Gy PBI, 5 or 10 mg/kg body weight, vs vehicle

Cc1nc[nH]c1CN1CCN(C(=O)N[C@@H](CC(C)C)C(=O)O)[C@@H](Cc2ccccc2)C1=O [GGTi-2418]
mouse equivalent of the safe human dose [1]: 660 mg/kg
dose that can be administered safely to humans [2]: up to 2,060 mg/m^2
dose that can be administered safely to humans, per body weight [2]: ≤ 54 mg/kg body weight

CC(C)C[C@H](NC(=O)c1ccc(NCc2cnc[nH]2)cc1-c1cccc2ccccc12)C(=O)O [GGTi-2133]
percentage of Akkermansia muciniphila in cecal content ([3]; irradiated mice): increased
percentage of Clostridium species in cecal content ([3]; vs PBI plus vehicle): reduced
percentage of Turicibacter species in cecal content ([3]; vs PBI plus vehicle): reduced
proliferation rate and metabolic activity (MTT) [4]: suppresses
proliferation rate and metabolic activity (MTT) [5]: suppresses
proliferation rate and metabolic activity (MTT) [6]: suppresses
OLFM4 (intestinal stem cell marker) staining ([7]; 2 weeks after 12 Gy γ-ray PBI, immunohistochemistry, 1 or 2.5 mg/kg): restored
PBI-induced body weight loss ([7]; 12 Gy PBI, 2.5 mg/kg body weight i.p., vs vehicle): significantly less
proliferating cell number in the crypts (PCNA and Ki-67) ([7]; 12 Gy PBI, 2.5 mg/kg body weight, vs PBI plus vehicle): significantly increased
PBI-induced decrease in mucosal surface area (MSA) [7, 10]: attenuated
PBI-induced increase in crypt depth [7, 10]: attenuated
PBI-induced increase in enterocyte length [7, 10]: attenuated
PBI-induced increase in enterocyte nuclear length [7, 10]: attenuated
PBI-induced reduction in villus height [7, 10]: attenuated
Alcian blue staining intensity of goblet cells [7, 11]: significantly enhanced
intraepithelial macrophage (CD68) number per villus [7, 11]: decrease
lymphocyte (CD3ε positive) number in the intestine [7, 11]: significant recovery
neutrophil (MPO positive) number in the intestine [7, 11]: significant recovery
number of mucus secreting goblet cells (Alcian blue) [7, 11]: elevated
stromal macrophage (CD68) number per villus [7, 11]: decrease
number of surviving crypts [8]: significantly (p=0.002) increased
colony forming ability (PANC-1 cell line): suppresses
proliferation rate and metabolic activity (MTT) ([9]; 3 concentrations, once a day for 4 days, time-dependent and dose-dependent): suppresses
radiation-induced decline in proliferation rate and metabolic activity ([9]; combined with 2 Gy radiation vs either treatment alone): enhances
colony forming ability (PSN-1 cell line): suppresses

COC(=O)[C@H](CC(C)C)NC(=O)c1ccc(NC[C@@H](N)CS)cc1-c1cccc2ccccc12 [GGTi-298]
PBI-induced increase in crypt depth [7, 12]: attenuated
PBI-induced increase in crypt width [7, 12]: attenuated
PBI-induced reduction in villus height [7, 12]: attenuated

From US20260263421A1, “Method of Mitigating Radiation Injury with Geranylgeranyl Transferase Inhibitors” (BioVentures, LLC, priority 2022, published 2026)
